# From patent US20110136801A1, “Novel Compounds” (Dainippon Sumitomo Pharma Co. Ltd., priority 2009, published 2011)
# Target: T1, human TLR7 (Homo sapiens, UniProt Q9NYK1)
# T1 construct: expressed in transfected cells; host or cells: HEK293 cell line stably expressing the pNiFty2-SEAP reporter plasmid; TLR7 in pUNO vector, blasticidin selection
# T1 sequence (Q9NYK1 27-1049): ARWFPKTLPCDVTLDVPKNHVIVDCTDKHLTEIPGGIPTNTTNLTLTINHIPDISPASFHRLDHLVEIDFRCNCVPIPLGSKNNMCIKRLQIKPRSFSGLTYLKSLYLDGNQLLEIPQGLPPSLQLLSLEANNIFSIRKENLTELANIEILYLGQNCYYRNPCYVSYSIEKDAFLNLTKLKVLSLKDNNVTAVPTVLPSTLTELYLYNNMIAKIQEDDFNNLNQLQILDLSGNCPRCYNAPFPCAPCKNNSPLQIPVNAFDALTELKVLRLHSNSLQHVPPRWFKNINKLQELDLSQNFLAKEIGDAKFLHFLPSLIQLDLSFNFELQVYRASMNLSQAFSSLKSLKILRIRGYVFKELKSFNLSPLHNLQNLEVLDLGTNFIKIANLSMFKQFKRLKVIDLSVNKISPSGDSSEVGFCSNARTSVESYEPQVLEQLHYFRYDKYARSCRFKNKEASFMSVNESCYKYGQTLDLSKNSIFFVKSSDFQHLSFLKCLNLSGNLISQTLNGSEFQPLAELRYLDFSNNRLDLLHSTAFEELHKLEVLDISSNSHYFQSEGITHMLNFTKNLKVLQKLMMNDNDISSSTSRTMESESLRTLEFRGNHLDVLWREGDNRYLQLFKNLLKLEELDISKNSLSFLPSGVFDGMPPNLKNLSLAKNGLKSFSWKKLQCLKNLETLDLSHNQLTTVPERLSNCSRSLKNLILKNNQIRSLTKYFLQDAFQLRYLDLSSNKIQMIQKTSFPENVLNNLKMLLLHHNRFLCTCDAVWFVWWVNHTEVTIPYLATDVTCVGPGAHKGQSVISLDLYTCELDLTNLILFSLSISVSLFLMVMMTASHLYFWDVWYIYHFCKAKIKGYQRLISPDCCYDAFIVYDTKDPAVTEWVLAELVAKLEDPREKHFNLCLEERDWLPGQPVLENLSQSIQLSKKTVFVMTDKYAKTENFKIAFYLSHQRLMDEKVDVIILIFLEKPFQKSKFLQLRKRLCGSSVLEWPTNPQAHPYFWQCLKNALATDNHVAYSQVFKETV
# Test: Human TLR7 Assay (SEAP reporter in HEK293 cells);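 also: Read-out is secreted alkaline phosphatase made under an NFkB/ELAM-1 composite promoter, reporting TLR7-triggered NFkB activation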
# Type: cell-based
# Conditions: HEK293 cell line expressing human TLR7 and pNiFty2-SEAP reporter, overnight incubation at 37° C., 0.1% DMSO; read-out: hTLR7 EC50
row,Structure (SMILES),EC50 [nM]
1,"CCCOCc1nc2c(N)nc3ccccc3c2n1CCCN(Cc1cccc(OC(C)(C)C(=O)OC)c1)C(=O)CN(CC)CC [Example 174, Methyl 2-{3-[(N-{3-[4-amino-2-(propoxymethyl)-1H-imidazo[4,5-c]quinolin-1-yl]propyl}-2-{diethylamino}acetamido)methyl]phenoxy}-2-methylpropanoate]",117
2,"COCCc1nc2c(N)nc3ccccc3c2n1CCCCN(CCCN1CCOCC1)Cc1cccc(OC(C)(C)C(=O)OC)c1 [Example 137, Methyl 2-{3-[({4-[4-amino-2-(2-methoxyethyl)-1H-imidazo[4,5-c]quinolin-1-yl]butyl}{3-morpholinopropyl}amino)methyl]phenoxy}-2-methylpropanoate]",87.7
3,"COCCc1nc2c(N)nc3ccccc3c2n1CCCCNC(=O)N(CCN1CCCCC1)Cc1ccc(F)c(OCC(=O)OC(C)C)c1 [Example 142, Isopropyl 2-{5-[(3-{4-[4-amino-2-(2-methoxyethyl)-1H-imidazo[4,5-c]quinolin-1-yl]butyl}-1-{2-(piperidin-1-yl)ethyl}ureido)methyl]-2-fluorophenoxy}acetate]",57.5
4,"CCOC(=O)COc1cccc(CN(CCCn2c(CCOC)nc3c(N)nc4ccccc4c32)C(=O)CN2CCCCC2)c1 [Example 32, Ethyl 2-{3-[(N-{3-[4-amino-2-(2-methoxyethyl)-1H-imidazo[4,5-c]quinolin-1-yl]propyl}-2-(piperidin-1-yl)acetamido)methyl]phenoxy}acetate]",177
5,"COCCc1nc2c(N)nc3ccccc3c2n1CCCCN(Cc1ccc(F)c(OCC(=O)OC(C)C)c1)C(=O)NCCN1CCCCC1 [Example 139, Isopropyl 2-{5-[(1-{4-[4-amino-2-(2-methoxyethyl)-1H-imidazo[4,5-c]quinolin-1-yl]butyl}-3-{2-(piperidin-1-yl)ethyl}ureido)methyl]-2-fluorophenoxy}acetate]",57
6,"CCOC(=O)COc1cccc(CN(CCCn2c(CCOC)nc3c(N)nc4ccccc4c32)C(=O)CN(CC)CC)c1OC [Example 89, Ethyl 2-{3-[(N-{3-[4-amino-2-(2-methoxyethyl)-1H-imidazo[4,5-c]quinolin-1-yl]propyl}-2-{diethylamino}acetamido)methyl]-2-methoxyphenoxy}acetate]",95.7
7,"CCN(CC)CC(=O)N(CCCn1c(CCOC)nc2c(N)nc3ccccc3c21)Cc1cccc(OCC(=O)OCCOC)c1 [Example 29, 2-Methoxyethyl 2-{3-[(N-{3-[4-amino-2-(2-methoxyethyl)-1H-imidazo[4,5-c]quinolin-1-yl]propyl}-2-(diethylamino)acetamido)methyl]phenoxy}acetate]",174
8,"CCOC(=O)COc1cc(CN(CCCn2c(CCOC)nc3c(N)nc4ccccc4c32)C(=O)CN(CC)CC)ccc1F [Example 119, Ethyl 2-{5-[(N-{3-[4-amino-2-(2-methoxyethyl)-1H-imidazo[4,5-c]quinolin-1-yl]propyl}-2-{diethylamino}acetamido)methyl]-2-fluorophenoxy}acetate]",93.2
9,"CCOC(=O)C(C)(C)Oc1cccc(CN(CCCn2c(CCOC)nc3c(N)nc4ccccc4c32)C(=O)CN(C)C)c1 [Example 148, Ethyl 2-{3-[(N-{3-[4-amino-2-(2-methoxyethyl)-1H-imidazo[4,5-c]quinolin-1-yl]propyl}-2-{dimethylamino}acetamido)methyl]phenoxy}-2-methylpropanoate]",115
10,"COCCc1nc2c(N)nc3ccccc3c2n1CCOCCN(Cc1cccc(OCC(=O)OC(C)C)c1)C(=O)NCCN1CCCCC1 [Example 152, Isopropyl 2-(3-{[1-(2-{2-[4-amino-2-(2-methoxyethyl)-1H-imidazo[4,5-c]quinolin-1-yl]ethoxy}ethyl)-3-{2-(piperidin-1-yl)ethyl}ureido]methyl}phenoxy)acetate]",266
11,"COCCc1nc2c(N)nc3ccccc3c2n1CCCN(Cc1cccc(OCC(=O)OC)c1)C(=O)CN(C)C [Example 17, Methyl (3-{[[3-(4-amino-2-(2-methoxyethyl)-1H-imidazo[4,5-c]quinolin-1-yl)propyl](N,N-dimethylglycyl)amino]methyl}phenoxy)acetate]",349
12,"COCCc1nc2c(N)nc3ccccc3c2n1CCCN(Cc1cccc(OCC(=O)OC2CCCC2)c1)C(=O)CN(C)C [Example 110, Cyclopentyl 2-{3-[(N-{3-[4-amino-2-(2-methoxyethyl)-1H-imidazo[4,5-c]quinolin-1-yl]propyl}-2-{dimethylamino}acetamido)methyl]phenoxy}acetate]",128
13,"CCN(CC)CC(=O)N(CCCn1c(CCOC)nc2c(N)nc3ccccc3c21)Cc1cccc(OCC(=O)OC(C)C)c1OC [Example 90, Isopropyl 2-{3-[(N-{3-[4-amino-2-(2-methoxyethyl)-1H-imidazo[4,5-c]quinolin-1-yl]propyl}-2-{diethylamino}acetamido)methyl]-2-methoxyphenoxy}acetate]",81
14,"CCN(CC)CC(=O)N(CCCn1c(CCOC)nc2c(N)nc3ccccc3c21)Cc1ccc(F)c(OCC(=O)OC)c1 [Example 120, Methyl 2-{5-[(N-{3-[4-amino-2-(2-methoxyethyl)-1H-imidazo[4,5-c]quinolin-1-yl]propyl}-2-{diethylamino}acetamido)methyl]-2-fluorophenoxy}acetate]",278
15,"CCOCc1nc2c(N)nc3ccccc3c2n1CCCN(Cc1cccc(OCC(=O)OC(C)C)c1F)C(=O)CN(C)C [Example 167, Isopropyl 2-{3-[(N-{3-[4-amino-2-(ethoxymethyl)-1H-imidazo[4,5-c]quinolin-1-yl]propyl}-2-{dimethylamino}acetamido)methyl]-2-fluorophenoxy}acetate]",716
16,"CCCc1nc2c(N)nc3ccccc3c2n1CCCN(Cc1cccc(OCC(=O)OC(C)C)c1)C(=O)CN(CC)CC [Example 160, Isopropyl 2-[3-({N-[3-(4-amino-2-propyl-1H-imidazo[4,5-c]quinolin-1-yl)propyl]-2-(diethylamino)acetamido}methyl)phenoxy]acetate]",260
17,"CCOC(=O)C(CC)Oc1cccc(CN(CCCn2c(CCOC)nc3c(N)nc4ccccc4c32)C(=O)CN(CC)CC)c1 (centres unmarked) [Example 71, Ethyl 2-{3-[(N-{3-[4-amino-2-(2-methoxyethyl)-1H-imidazo[4,5-c]quinolin-1-yl]propyl}-2-{diethylamino}acetamido)methyl]phenoxy}butanoate]",23
18,"CCCCc1nc2c(N)nc3ccccc3c2n1CCCN(Cc1ccc(OCC(=O)OC)cc1)C(=O)CN1CCN(C)CC1 [Example 7, Methyl [4-({[3-(4-amino-2-butyl-1H-imidazo[4,5-c]quinolin-1-yl)propyl][(4-methylpiperazin-1-yl)acetyl]amino}methyl)phenoxy]acetate]",633
19,"CCN(C)CC(=O)N(CCCn1c(CCOC)nc2c(N)nc3ccccc3c21)Cc1cccc(OCC(=O)OC(C)C)c1F [Example 98, Isopropyl 2-{3-[(N-{3-[4-amino-2-(2-methoxyethyl)-1H-imidazo[4,5-c]quinolin-1-yl]propyl}-2-{ethyl(methyl)amino}acetamido)methyl]-2-fluorophenoxy}acetate]",228
20,"CCOC(=O)COc1cccc(CN(CCCn2c(CCOC)nc3c(N)nc4ccccc4c32)C(=O)CN(CC)CC)c1F [Example 93, Ethyl 2-{3-[(N-{3-[4-amino-2-(2-methoxyethyl)-1H-imidazo[4,5-c]quinolin-1-yl]propyl}-2-{diethylamino}acetamido)methyl]-2-fluorophenoxy}acetate]",73.9
